Test results published in BindingDB's records for PubMed 10411589 (The University of Queensland, 1999).

How the values were obtained:
[1] = molecular target: Sodium-dependent noradrenaline transporter (Bos taurus, UniProt P51143)
[2] = molecular target: Norepinephrine transporter (Rattus norvegicus, UniProt Q9JIA2)
[3] = molecular target: Sodium-dependent noradrenaline transporter (Homo sapiens, UniProt P23975)
Chain of Sodium-dependent noradrenaline transporter (Homo sapiens, UniProt P23975) (P23975 whole entry): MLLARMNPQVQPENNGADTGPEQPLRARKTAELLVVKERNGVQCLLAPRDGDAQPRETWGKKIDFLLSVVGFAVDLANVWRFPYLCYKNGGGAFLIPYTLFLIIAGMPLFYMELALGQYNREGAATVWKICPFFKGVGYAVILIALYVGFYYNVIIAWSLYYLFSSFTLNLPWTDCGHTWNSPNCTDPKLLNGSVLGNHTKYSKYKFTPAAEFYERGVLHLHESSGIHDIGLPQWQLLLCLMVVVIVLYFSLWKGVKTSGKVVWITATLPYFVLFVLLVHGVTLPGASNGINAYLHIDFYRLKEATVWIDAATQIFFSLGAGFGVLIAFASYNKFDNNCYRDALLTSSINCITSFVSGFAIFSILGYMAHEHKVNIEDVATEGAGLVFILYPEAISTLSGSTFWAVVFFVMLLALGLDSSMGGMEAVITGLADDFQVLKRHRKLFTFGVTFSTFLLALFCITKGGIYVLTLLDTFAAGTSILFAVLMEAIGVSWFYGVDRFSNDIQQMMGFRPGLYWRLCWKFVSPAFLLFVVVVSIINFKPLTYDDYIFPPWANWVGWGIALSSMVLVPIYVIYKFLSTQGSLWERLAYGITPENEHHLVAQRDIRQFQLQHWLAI

Chain of Sodium-dependent noradrenaline transporter (Bos taurus, UniProt P51143) (P51143 whole entry): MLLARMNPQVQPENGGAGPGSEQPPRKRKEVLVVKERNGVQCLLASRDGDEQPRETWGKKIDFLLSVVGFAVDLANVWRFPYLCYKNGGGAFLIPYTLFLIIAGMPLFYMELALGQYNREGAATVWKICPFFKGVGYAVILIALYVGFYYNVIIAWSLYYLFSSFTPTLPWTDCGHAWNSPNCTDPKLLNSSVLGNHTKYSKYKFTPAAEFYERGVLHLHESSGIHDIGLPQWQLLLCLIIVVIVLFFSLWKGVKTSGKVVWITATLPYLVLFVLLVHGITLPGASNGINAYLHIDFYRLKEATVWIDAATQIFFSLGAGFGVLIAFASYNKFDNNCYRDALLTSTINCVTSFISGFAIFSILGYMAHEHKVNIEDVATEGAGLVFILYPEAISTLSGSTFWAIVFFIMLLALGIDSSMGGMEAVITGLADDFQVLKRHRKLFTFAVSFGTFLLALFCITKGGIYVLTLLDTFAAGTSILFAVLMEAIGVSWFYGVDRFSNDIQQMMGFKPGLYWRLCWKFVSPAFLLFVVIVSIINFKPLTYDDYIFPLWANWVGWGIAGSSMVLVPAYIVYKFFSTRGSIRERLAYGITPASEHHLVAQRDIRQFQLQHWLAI

Ki [1]	Ki [2]	SMILES	Ki [3]
397 nM	392 nM	NCCc1ccc(O)c(O)c1	–
93.6 nM	–	CN(C)CCCN1c2ccccc2CCc2ccccc21	–

The remaining lines, values behind:

SMILES	Ki [1]	Ki [2]	Ki [3]
C[n+]1ccc(-c2ccccc2)cc1 [NSC_39484]	570 nM	778 nM	507 nM
CNCC(O)c1ccc(O)c(O)c1 (stereo not given) [EPINEPHRINE]	5000 nM	6500 nM	3680 nM
CNCCC(Oc1ccccc1OC)c1ccccc1 (stereo not given) [3-(2-methoxyphenoxy)-N-methyl-3-phenylpropan-1-amine]	–	5.74 nM	–
